{"source": "patent US20040091855A1", "about": "“Method for production of antivirals by use of HIV-derived HR1 peptides, and trimers formed therefrom” (priority 2002, published 2004)", "key": {"[1]": {"test_system": "trimers (SEQ ID NO:36) and labeled HR2 peptide (SEQ ID NO:33)", "assay": "Fluorescence polarization assay of inhibition of complexing between trimers and labeled HR2 peptide", "type": "binding, HIV-1", "settings": "read-out: Concentration to inhibit complexing between the trimers and labeled HR2 peptide by 50% (IC50); fluorescein-labeled HR2 peptide 0.2 nM; trimers SEQ ID NO:36 50 nM", "experimental": "In an example of a homogenous assay carried out as a liquid phase-based assay system, a fluorescence polarization assay was used in taking advantage of the high affinity interaction between HR1 and HR2 regions. Into reaction wells of a high throughput plate (>300 reaction wells) was added 20 μl of a solution containing a desired concentration of molecule to be assessed for its ability to bind to trimers employed with the present invention (e.g., formed from synthetic peptide) and either inhibit or disrupt HR1-HR2 binding interactions (“complexing between HR1 and HR2″). […] To each reaction well was then added 10 μl of a solution containing a desired concentration of trimers (formed from synthetic peptide employed with the present invention). […] Fluorescence intensity of polarized light was then measured with a detection system comprising a spectrophotometer, and the amount of polarized light was calculated using standard software in the art. In this example of the method according to the present invention, molecules assessed for ability to inhibit or disrupt complexing between trimers and a labeled HR2 peptide (e.g., SEQ ID NO:33) comprised either of two HR2 peptides."}, "HIV-1": {"test_system": "HIV-1", "settings": "in vitro infectivity assay", "description": "These assays score for reduction of infectious virus titer employing the indicator cell lines MAGI or the CCR5 expressing derivative cMAGI. Both cell lines exploit the ability of HIV-1 tat to transactivate the expression of a β-galactosidase reporter gene driven by the HIV-LTR. The β-gal reporter has been modified to localize in the nucleus and can be detected with the X-gal substrate as intense nuclear staining within a few days of infection. The number of stained nuclei can thus be interpreted as equal to the number of infectious virions in the challenge inoculum if there is only one round of infection prior to staining. […] The cells were cultured for 2 more days, and then fixed and stained with the X-gal substrate to detect HIV-infected cells. The number of infected cells for each control and peptide dilution was determined with the CCD-imager, and then the IC50 and IC90 were calculated (expressed in μg/ml)."}}}
{"substance": "HR2 peptide A: HR2 peptide, derived from the HR2 region of HIV-1 gp41; also used labeled as binding partner (WMEWDREINNYTSLIHSLIEESQNQQEKNEQELLEL)", "values": [{"measurement": "IC50", "setting": "[1]", "value": 0.068, "unit": "µM"}, {"measurement": "Antiviral activity against HIV-1 IC50", "setting": "HIV-1", "value": 0.002, "unit": "µg/mL"}, {"measurement": "Antiviral activity against HIV-1 IC90", "setting": "HIV-1", "value": 0.072, "unit": "µg/mL"}]}
